Patent US8198273B2, “Compounds and methods for kinase modulation, and indications therefor” (Plexxikon Inc., priority 2009, dated 2012)

Legend:
[1] = system: A375 melanoma cells (B-Raf V600E); experiment: A375 cell growth inhibition (ATPlite); assay type: cell-based; conditions: Homo sapiens, A-375, 72 h; A375, 3 days incubation
Description: (§1) Compounds are assessed in a variety of cell based assays. For example human cell lines with B-Raf V600E mutation (A375 melanoma, SKMEL3 melanoma, and COL0205 colon adenocarcinoma), as well as tumorigenic cell lines with wild-type B-RAF (SW620 colon adenocarcinoma) or with Ras mutations (SKMEL2 melanoma and IPC298 melanoma). Similar assays may be used to assess additional tumorigenic cell lines with Ras mutations, including, but not limited to, M202, M207, M243, M244, M296, S117, HCT116, HCT15, DLD1, MiaPaCa, A549, NCI-H23, NCI-H460, HOP62, MDA-MB231, Hs-578T, HL60, MOLT-4, and CCRF-CEM.
(§2) On day 1, cells are counted, then centrifuged in a conical tube for 5 minutes at 1000 rpm. The supernatant is removed and cells are re-suspended as follows: • SW620 (ATCC catalog #CCL-27): resuspend in Leibovitz's L-15 medium, 2 mM L-glutamine, 10% fetal bovine serum to 6×10^4 cells/mL. • A375 (ATCC catalog #CRL-1619): resuspend in Dulbecco's modified Eagle's medium, 4 mM L-glutamine, 4.5 g/L D-glucose, 10% fetal bovine serum to 6×10^4 cells/mL. • COL0205 (ATCC catalog #CCL-222): resuspend in RPMI 1640, 2 mM L-glutamine, 1.5 g/L sodium bicarbonate, 4.5 g/L D-glucose, 10 mM HEPES, 1.0 mM sodium pyruvate, 10% fetal bovine serum to 6×10^4 cells/mL. • SKMEL2 (ATCC catalog #HTB-68): resuspend in Minimum Eagle essential medium, 2 mM L-glutamine, 1.5 g/L sodium bicarbonate, 0.1 mM non-essential amino acids, 1.0 mM sodium pyruvate, 10% fetal bovine serum to 6×10^4 cells/mL. • SKMEL3 (ATCC catalog #HTB-69): resuspend in McCoy's 5A medium, 1.5 mM L-glutamine, 15% fetal bovine serum to 6×10^4 cells/mL. • IPC298 (DSMZ catalog #ACC 251): resuspend in RPMI 1640, 2 mM L-glutamine, 10% fetal bovine serum to 6×10^4 cells/mL.
(§3) The cells are plated, 50 μL in each well of a 96-well dish (Corning 3610) and incubated at 37° C. in 5% CO2 overnight, cells plated to a final concentration of cells as follows:
(§4) On day 2, compound at a maximum concentration of 5 mM is serially diluted 1:3 for a total of 8 point titration with DMSO as a control. A 1 μL aliquot of each dilution point and control is added to 249 μL growth media and 50 μL is added to a well containing cells, providing 10 μM compound at the maximum concentration point. The cells are incubated for 3 days at 37° C. in 5% CO2.
(§5) On day 5, ATPlite 1 step Luminescence Assay System (Perkin Elmer #6016739) is brought to room temperature along with the cell cultures. ATPlite is added 25 μL to each well, shake for 2 minutes, and the cells are incubated at room temperature for 10 minutes, then luminescence is read on Safire reader. The measured luminescence correlates directly with cell number, such that the reading as a function of compound concentration is used to determine the IC50 value.
(§6) It is understood that the results of these assays may vary as assay conditions are varied. Inhibition levels determined under the conditions described herein represent a relative activity for the compounds tested under the specific conditions employed. The cell based assays are likely to show variability due to the complexity of the system and the sensitivity thereof to any changes in the assay conditions. […] Results for compounds that are tested and show substantially no inhibition below the highest tested concentration are represented as “-” in the tables below. In some instances, the compounds were not tested in all of the assays, or assay results were not valid, as indicated by NA in the tables below.

[2] = system: SW620 colon adenocarcinoma cells (wild-type B-RAF); experiment: SW620 cell growth inhibition (ATPlite); assay type: cell-based; conditions: Homo sapiens, SW-620, 72 h; SW620, 3 days incubation
Description: as §1, §2, §3, §4, §5, §6

[3] = system: COLO205 colon adenocarcinoma cells (B-Raf V600E); experiment: COLO205 cell growth inhibition (ATPlite); assay type: cell-based; conditions: Homo sapiens, COLO 205, 72 h; COLO205, 3 days incubation
Description: as §1, §2, §3, §4, §5, §6

[4] = system: SKMEL2 melanoma cells (Ras mutation); experiment: SKMEL2 cell growth inhibition (ATPlite); assay type: cell-based; conditions: Homo sapiens, SK-MEL-2, 72 h; SKMEL2, 3 days incubation
Description: as §1, §2, §3
SKMEL2: 2,000 cells per well.
as §4, §5, §6

[5] = Relative solubility by turbidity in aqueous buffers of varying pH; assay type: physicochemical
Description: As an indication of relative solubility, the turbidity of compounds in aqueous solutions is assessed. To assess possible compound properties in different physiological compartments, such as stomach, intestine, and blood, a series of aqueous buffers with varying pH is used. Thus each compound is diluted into four different physiologically relevant buffers and solution turbidity is measured by spectrophotometry.
Compounds are dissolved at a concentration of 25 mM in dimethyl sulfoxide, then serially diluted 1:1 into a 96 well plate, diluting 10 times in pure dimethyl sulfoxide, with the final well of each row a dimethyl sulfoxide blank. In an assay plate, 99 μL of appropriate buffer is added to each well, and 1 μL of each sample dilution is added to the buffer, achieving a range of final total concentrations in aqueous solutions having different pH. The buffers used are Simulated Gastric Fluid (SGF-pH 1.5) 0.5M NaCl, pH 1.5; Simulated Intestinal fluid (SIF-pH 4.5 and pH 6.8) 0.05M NaH2PO4, pH 4.5 and 6.8; and Hepes Buffer (HEPES-pH 7.4) 10 mM HEPES, 150 mM NaCl, pH 7.4. Control compounds pyrene, estriol and propranolol HCl are also assessed. Plates are spun and then mixed for 1 minute, and the absorbance is read using a Tecan Safire II to read wavelengths in the visible range (490, 535, and 650 nm) at four locations per well, reflecting the degree of turbidity present. The average optical density for each wavelength in each well is graphed vs. compound concentration, and the concentration at which the curve crosses a threshold O.D. of 0.01 for each wavelength is reported as the endpoint turbidity assay result. The average of the three wavelengths is used to compare turbidity of compounds. Compounds are considered to have low solubility if the threshold concentration is <31.3 04, moderate solubility if the threshold concentration is 31.3 μM to 250 μM, and high solubility if the threshold concentration is >250 μM.

c-Raf-1 = c-Raf-1 (Homo sapiens, UniProt P04049); experiment: c-Raf-1 biochemical kinase inhibition (AlphaScreen, biotin-MEK1 substrate); conditions: 100 μM ATP
Description: (§7) Compounds to be tested are diluted in dimethyl sulfoxide to a concentration of 0.1 mM. These are serially diluted 15 μL into 30 μL of dimethyl sulfoxide seven times in 96 well plates for a total of 8 dilution points, and for each dilution point 1 μL is added to a well of an assay plate. […] The reaction is started with addition of 10 μL of 200 μM ATP (i.e. final 100 μM ATP). […] The plates are incubated for 3 hours at room temperature and read on Envision reader (Perkin Elmer). […] The signal vs. compound concentration is used to determine the IC50.

B-Raf V600E = B-Raf V600E (Homo sapiens, UniProt P15056, V600E); experiment: B-Raf V600E biochemical kinase inhibition (AlphaScreen, biotin-MEK1 substrate); conditions: 100 μM ATP
Description: as §7

CYP2C9 = CYP2C9 (Homo sapiens, UniProt P11712); experiment: CYP2C9 inhibition (fluorescent substrate); assay type: in vitro ADME; conditions: CYP2C9, MFC substrate; read-out: Cyp IC50 2C9
Description: (§8) CYP (Cytochrome P450) enzymes are the major drug metabolizing enzymes present in the liver. The inhibition of CYP enzyme activity (IC50) for each of CYP1A2, CYP2C19, CYP2C9, CYP2D6, CYP3A4(BFC) and CYP3A4(BQ) is determined for compounds, where inhibition of metabolism of a known substrate leads to a decrease in the fluorescence of the metabolized product. The fluorescence of the product is monitored as a function of compound concentration.
(§9) Compounds are dissolved in dimethyl sulfoxide to a concentration of 100 mM. These are diluted 1 μL into 82 μL of acetonitrile. […] These are then serially diluted 1:1 (160 μL to 160 μL co-factor mix) for a total of 10 points. A 10 μL aliquot of this final mixture is dispensed into 384 well assay plates and incubated for 10 minutes at 37° C. […] Assay plates are incubated at 37° C. […] The signal versus compound concentration is used to determine the IC50. The enzymes and substrates for this assay are obtained from BD Biosciences.

CYP2D6 = CYP2D6 (Homo sapiens, UniProt P10635); experiment: CYP2D6 inhibition (fluorescent substrate); assay type: in vitro ADME; conditions: CYP2D6, AMMC substrate; read-out: Cyp IC50 2D6
Description: as §8, §9

B-Raf = B-Raf (Homo sapiens, UniProt P15056); experiment: B-Raf biochemical kinase inhibition (AlphaScreen, biotin-MEK1 substrate); conditions: 100 μM ATP
Description: as §7

CYP2C19 = CYP2C19 (Homo sapiens, UniProt P33261); experiment: CYP2C19 inhibition (fluorescent substrate); assay type: in vitro ADME; conditions: CYP2C19, CEC substrate; read-out: Cyp IC50 2C19
Description: as §8, §9

CYP3A4(BFC) = CYP3A4(BFC) (Homo sapiens, UniProt P08684); experiment: CYP3A4(BFC) inhibition (fluorescent substrate); assay type: in vitro ADME; conditions: read-out: Cyp IC50 3A4(BFC)
Description: as §9, with “CYP (Cytochrome P450) enzymes are the major drug metabolizing enzymes present in the liver. The inhibition of CYP enzyme activity (IC50) for each of CYP1A2, CYP2C19, CYP2C9, CYP2D6, CYP3A4(BFC) and CYP3A4(BQ) is determined for compounds, where inhibition of metabolism of a known substrate leads to a decrease in the fluorescence of the metabolized product. The fluorescence of the product is monitored as a function of compound concentration. Compounds” for “Compounds”

CYP3A4(BQ) = CYP3A4(BQ) (Homo sapiens, UniProt P08684); experiment: CYP3A4(BQ) inhibition (fluorescent substrate); assay type: in vitro ADME; conditions: read-out: Cyp IC50 3A4(BQ)
Description: as §9, with “CYP (Cytochrome P450) enzymes are the major drug metabolizing enzymes present in the liver. The inhibition of CYP enzyme activity (IC50) for each of CYP1A2, CYP2C19, CYP2C9, CYP2D6, CYP3A4(BFC) and CYP3A4(BQ) is determined for compounds, where inhibition of metabolism of a known substrate leads to a decrease in the fluorescence of the metabolized product. The fluorescence of the product is monitored as a function of compound concentration. Compounds” for “Compounds”

CYP1A2 = target: T1, CYP1A2 (Homo sapiens, UniProt P05177); experiment: CYP1A2 inhibition (fluorescent substrate); assay type: in vitro ADME; conditions: CYP1A2, CEC substrate; read-out: Cyp IC50 1A2
T1 sequence (P05177 1-516): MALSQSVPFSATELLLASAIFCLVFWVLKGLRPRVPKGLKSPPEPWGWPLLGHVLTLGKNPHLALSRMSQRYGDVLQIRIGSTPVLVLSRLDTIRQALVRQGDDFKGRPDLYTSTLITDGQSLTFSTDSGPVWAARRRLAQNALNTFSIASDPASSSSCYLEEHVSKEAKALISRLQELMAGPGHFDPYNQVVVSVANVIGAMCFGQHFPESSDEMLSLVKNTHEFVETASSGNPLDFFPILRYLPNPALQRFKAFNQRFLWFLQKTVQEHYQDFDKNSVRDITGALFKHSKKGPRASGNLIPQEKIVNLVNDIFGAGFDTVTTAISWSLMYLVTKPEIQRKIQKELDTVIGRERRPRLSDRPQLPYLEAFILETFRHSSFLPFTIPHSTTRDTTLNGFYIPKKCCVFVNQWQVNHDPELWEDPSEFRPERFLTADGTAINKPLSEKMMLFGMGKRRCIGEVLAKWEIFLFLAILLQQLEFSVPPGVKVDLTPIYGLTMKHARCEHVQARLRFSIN
Description: as §8, §9

Sequence of B-Raf (P15056 whole entry): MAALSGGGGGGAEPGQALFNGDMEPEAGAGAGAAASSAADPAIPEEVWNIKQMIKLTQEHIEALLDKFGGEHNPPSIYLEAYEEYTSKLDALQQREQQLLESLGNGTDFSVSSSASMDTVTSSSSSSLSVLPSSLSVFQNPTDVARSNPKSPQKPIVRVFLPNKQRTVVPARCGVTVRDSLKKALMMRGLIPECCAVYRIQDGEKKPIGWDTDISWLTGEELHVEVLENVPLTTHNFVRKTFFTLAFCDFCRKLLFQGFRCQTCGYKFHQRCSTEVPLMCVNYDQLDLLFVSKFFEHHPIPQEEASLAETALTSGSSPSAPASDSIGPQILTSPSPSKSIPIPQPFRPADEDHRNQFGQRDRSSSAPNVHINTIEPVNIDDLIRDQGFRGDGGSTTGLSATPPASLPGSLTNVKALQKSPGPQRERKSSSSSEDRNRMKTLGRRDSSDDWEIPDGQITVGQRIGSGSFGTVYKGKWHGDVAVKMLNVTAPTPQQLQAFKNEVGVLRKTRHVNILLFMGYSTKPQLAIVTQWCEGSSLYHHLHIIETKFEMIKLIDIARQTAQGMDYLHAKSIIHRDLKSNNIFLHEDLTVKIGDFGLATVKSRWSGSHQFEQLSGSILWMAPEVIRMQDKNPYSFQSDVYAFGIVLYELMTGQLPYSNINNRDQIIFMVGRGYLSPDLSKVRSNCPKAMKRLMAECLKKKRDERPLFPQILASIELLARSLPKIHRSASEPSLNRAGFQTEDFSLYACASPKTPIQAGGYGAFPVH
Sequence of CYP3A4(BFC) (P08684 whole entry): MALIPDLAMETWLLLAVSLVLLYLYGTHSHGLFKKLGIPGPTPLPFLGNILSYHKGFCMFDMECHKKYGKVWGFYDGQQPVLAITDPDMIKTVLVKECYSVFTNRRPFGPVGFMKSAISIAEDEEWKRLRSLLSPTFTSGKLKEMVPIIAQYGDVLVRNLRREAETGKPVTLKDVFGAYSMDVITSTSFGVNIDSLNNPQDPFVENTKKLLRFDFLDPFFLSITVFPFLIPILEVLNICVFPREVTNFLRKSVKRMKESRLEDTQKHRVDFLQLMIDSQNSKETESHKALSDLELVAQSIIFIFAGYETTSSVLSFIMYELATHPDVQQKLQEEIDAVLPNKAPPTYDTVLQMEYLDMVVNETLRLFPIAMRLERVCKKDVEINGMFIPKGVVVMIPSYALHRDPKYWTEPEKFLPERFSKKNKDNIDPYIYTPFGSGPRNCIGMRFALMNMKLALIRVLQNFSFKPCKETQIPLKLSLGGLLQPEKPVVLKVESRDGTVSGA
Sequence of CYP3A4(BQ) (P08684 whole entry): as above
Sequence of CYP2C19 (P33261 whole entry): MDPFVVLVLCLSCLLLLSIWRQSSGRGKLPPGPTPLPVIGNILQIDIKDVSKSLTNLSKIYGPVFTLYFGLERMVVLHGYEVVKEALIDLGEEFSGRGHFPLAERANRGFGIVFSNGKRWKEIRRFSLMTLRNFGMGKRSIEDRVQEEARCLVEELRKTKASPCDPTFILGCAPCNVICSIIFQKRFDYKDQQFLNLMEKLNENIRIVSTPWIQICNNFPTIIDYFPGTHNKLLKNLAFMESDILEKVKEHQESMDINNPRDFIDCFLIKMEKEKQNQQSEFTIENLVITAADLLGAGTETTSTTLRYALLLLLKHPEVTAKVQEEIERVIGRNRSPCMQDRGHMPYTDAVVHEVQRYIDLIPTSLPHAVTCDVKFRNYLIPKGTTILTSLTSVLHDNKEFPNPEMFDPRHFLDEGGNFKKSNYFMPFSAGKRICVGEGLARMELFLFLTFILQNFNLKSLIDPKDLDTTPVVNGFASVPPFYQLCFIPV
Sequence of CYP2D6 (P10635 whole entry): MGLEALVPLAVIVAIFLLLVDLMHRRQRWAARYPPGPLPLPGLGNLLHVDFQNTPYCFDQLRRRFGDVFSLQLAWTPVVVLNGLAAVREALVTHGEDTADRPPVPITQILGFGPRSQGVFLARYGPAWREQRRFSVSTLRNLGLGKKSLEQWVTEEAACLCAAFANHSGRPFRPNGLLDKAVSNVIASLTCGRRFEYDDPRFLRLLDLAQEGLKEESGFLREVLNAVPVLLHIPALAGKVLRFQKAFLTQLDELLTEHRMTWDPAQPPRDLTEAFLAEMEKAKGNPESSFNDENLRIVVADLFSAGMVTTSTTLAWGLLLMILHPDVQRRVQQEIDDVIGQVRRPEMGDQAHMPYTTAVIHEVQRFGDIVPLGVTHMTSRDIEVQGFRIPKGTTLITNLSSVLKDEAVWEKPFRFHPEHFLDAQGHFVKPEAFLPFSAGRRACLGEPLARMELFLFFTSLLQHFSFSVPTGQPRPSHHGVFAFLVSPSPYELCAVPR
Sequence of CYP2C9 (P11712 whole entry): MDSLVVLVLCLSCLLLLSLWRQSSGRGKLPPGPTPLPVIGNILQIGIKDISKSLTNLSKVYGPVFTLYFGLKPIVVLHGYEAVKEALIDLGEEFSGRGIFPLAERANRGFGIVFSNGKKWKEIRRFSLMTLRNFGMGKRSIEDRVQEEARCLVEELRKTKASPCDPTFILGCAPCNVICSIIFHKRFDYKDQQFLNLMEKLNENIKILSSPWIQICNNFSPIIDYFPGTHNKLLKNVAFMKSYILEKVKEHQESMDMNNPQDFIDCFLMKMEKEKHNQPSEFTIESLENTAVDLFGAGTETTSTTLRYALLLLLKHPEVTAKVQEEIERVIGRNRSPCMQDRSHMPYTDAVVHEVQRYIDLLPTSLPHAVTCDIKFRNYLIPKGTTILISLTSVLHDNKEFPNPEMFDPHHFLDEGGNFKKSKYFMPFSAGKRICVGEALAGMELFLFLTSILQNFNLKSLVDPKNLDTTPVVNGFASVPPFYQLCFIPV
Sequence of c-Raf-1 (P04049 whole entry): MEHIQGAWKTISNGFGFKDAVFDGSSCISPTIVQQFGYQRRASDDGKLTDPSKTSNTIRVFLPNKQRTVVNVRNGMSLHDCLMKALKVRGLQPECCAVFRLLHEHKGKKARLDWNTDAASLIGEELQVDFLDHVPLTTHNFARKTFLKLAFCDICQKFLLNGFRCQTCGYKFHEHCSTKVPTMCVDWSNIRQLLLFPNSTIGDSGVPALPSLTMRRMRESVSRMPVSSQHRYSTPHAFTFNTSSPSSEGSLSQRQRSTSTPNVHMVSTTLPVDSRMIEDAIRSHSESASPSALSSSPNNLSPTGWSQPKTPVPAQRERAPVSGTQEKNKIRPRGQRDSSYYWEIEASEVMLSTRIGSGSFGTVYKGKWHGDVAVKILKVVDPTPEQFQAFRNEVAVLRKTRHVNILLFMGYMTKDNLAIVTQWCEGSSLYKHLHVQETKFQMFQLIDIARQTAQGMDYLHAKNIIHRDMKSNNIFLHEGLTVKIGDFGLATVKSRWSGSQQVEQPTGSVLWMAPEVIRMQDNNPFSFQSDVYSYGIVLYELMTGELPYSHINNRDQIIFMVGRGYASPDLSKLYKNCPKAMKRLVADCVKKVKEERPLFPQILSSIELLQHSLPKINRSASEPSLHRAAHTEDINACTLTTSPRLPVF
Sequence of B-Raf V600E (P15056 whole entry V600E): as the sequence (P15056 whole entry) above, with V600E counted along it

Compound	IC50 [1]	IC50 [2]	IC50 [3]	IC50 [4]	turbidity threshold (L, M, H) 7.4 ([5]; HEPES pH 7.4)	turbidity threshold (L, M, H) 4.5 ([5]; SIF pH 4.5)	turbidity threshold (L, M, H) 6.8 ([5]; SIF pH 6.8)	turbidity threshold (L, M, H) 1.4 ([5]; buffer pH 1.4 (SGF))	IC50 (c-Raf-1)	IC50 (B-Raf V600E)	IC50 (CYP2C9)	IC50 (CYP2D6)	IC50 (B-Raf)	IC50 (CYP2C19)	IC50 (CYP3A4(BFC))	IC50 (CYP3A4(BQ))	IC50 (CYP1A2)
O=C(c1c(F)ccc(NS(=O)(=O)c2cccnc2)c1F)c1c[nH]c2nccc(Cl)c12 [P-2074, Pyridine-3-sulfonic acid [3-(4-chloro-1H-pyrrolo[2,3-b]pyridine-3-carbonyl)-2,4-difluoro-phenyl]-amide]	< 5 µM	> 10 µM	< 10 µM	> 10 µM													
N#Cc1cnc2[nH]cc(C(=O)c3cccc(NS(=O)(=O)c4cccnc4)c3F)c2c1 [P-2086, Pyridine-3-sulfonic acid [3-(5-cyano-1H-pyrrolo[2,3-b]pyridine-3-carbonyl)-2-fluoro-phenyl]-amide]	< 10 µM	> 10 µM		> 10 µM	H (high solubility if the threshold concentration is >250 μM)	M (moderate solubility if the threshold concentration is 31.3 μM to 250 μM)	M (moderate solubility if the threshold concentration is 31.3 μM to 250 μM)	M (moderate solubility if the threshold concentration is 31.3 μM to 250 μM)									
CCCS(=O)(=O)Nc1ccc(F)c(C(=O)c2c[nH]c3ncc(-c4ccc(S(=O)(=O)C(C)C)cc4)cc23)c1F [P-2223, Propane-1-sulfonic acid (2,4-difluoro-3-{5-[4-(propane-2-sulfonyl)-phenyl]-1H-pyrrolo[2,3-b]pyridine-3-carbonyl}-phenyl)-amide]									< 0.01 µM	< 0.01 µM	> 10 µM	> 10 µM	< 0.01 µM	> 10 µM	> 10 µM	> 10 µM	> 10 µM
